Laboratory results reported in patent publication US20250002471A1 (Gilead Sciences, Inc., priority 2020, published 2025).
Like-named read-outs stand apart in the source and are kept apart here.

What was measured:
TLR7 = target: T1, TLR7 (Homo sapiens, UniProt Q9NYK1); assay: Human PBMC cell-based assay, TLR7 agonist GS-986 stimulation, cytokine (IL-6 and IFNα) readout; conditions: human PBMCs, read-out: TLR-7 EC50
T1 construct: lymphocytes, monocytes and dendritic cells that express TLR7, TLR8 and TLR9; endogenous in cells; host or cells: human PBMCs from healthy donors
T1 sequence (Q9NYK1 27-1049): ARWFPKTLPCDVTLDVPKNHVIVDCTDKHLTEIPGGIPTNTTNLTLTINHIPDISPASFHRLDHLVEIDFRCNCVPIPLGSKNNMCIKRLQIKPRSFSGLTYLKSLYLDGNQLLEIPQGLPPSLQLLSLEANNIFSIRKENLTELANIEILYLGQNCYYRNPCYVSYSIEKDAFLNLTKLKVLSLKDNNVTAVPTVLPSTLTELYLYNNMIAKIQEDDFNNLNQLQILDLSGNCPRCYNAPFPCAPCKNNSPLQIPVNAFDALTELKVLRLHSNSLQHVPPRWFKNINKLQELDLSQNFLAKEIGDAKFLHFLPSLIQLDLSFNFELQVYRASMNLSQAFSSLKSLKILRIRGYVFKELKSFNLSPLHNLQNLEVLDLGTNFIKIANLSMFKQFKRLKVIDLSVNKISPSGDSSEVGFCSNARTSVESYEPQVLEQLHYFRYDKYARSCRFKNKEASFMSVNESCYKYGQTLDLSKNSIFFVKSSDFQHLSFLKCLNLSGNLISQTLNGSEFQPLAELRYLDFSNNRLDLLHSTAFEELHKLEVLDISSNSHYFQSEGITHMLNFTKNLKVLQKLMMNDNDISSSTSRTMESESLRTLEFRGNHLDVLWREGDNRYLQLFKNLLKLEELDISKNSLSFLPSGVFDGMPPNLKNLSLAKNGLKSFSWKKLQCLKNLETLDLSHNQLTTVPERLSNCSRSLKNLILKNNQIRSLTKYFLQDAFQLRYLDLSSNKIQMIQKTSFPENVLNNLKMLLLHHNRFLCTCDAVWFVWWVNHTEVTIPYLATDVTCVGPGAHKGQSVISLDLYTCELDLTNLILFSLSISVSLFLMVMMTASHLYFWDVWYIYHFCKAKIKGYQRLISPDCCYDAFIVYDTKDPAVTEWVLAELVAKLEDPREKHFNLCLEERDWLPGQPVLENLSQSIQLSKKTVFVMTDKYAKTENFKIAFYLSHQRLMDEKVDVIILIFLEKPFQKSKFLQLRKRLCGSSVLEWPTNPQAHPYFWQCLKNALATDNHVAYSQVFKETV
How it was run: (§1)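 Cryopreserved healthy-donor PBMCs (100,000 cells/well, RPMI-1640 + 10% FBS) preincubated 1 h at 37 °C with antagonist (10-point dose response), then stimulated 6 h with GS-986 (400 nM final, TLR7) or ODN-2216 (3 μM final, TLR9). Supernatant IL-6 and IFNα measured by electrochemiluminescence immunoassay; EC50 from sigmoidal fit.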

TLR9 = target: T2, TLR9 (Homo sapiens, UniProt Q9NR96); assay: Human PBMC cell-based assay, TLR9 agonist ODN-2216 stimulation, cytokine (IL-6 and IFNα) readout; conditions: human PBMCs, ODN-2216 3 μM, 6 hours; Table 26; read-out: TLR-9 EC50
T2 construct: lymphocytes, monocytes and dendritic cells that express TLR7, TLR8 and TLR9; endogenous in cells; host or cells: human PBMCs from healthy donors
T2 sequence (Q9NR96 26-1032): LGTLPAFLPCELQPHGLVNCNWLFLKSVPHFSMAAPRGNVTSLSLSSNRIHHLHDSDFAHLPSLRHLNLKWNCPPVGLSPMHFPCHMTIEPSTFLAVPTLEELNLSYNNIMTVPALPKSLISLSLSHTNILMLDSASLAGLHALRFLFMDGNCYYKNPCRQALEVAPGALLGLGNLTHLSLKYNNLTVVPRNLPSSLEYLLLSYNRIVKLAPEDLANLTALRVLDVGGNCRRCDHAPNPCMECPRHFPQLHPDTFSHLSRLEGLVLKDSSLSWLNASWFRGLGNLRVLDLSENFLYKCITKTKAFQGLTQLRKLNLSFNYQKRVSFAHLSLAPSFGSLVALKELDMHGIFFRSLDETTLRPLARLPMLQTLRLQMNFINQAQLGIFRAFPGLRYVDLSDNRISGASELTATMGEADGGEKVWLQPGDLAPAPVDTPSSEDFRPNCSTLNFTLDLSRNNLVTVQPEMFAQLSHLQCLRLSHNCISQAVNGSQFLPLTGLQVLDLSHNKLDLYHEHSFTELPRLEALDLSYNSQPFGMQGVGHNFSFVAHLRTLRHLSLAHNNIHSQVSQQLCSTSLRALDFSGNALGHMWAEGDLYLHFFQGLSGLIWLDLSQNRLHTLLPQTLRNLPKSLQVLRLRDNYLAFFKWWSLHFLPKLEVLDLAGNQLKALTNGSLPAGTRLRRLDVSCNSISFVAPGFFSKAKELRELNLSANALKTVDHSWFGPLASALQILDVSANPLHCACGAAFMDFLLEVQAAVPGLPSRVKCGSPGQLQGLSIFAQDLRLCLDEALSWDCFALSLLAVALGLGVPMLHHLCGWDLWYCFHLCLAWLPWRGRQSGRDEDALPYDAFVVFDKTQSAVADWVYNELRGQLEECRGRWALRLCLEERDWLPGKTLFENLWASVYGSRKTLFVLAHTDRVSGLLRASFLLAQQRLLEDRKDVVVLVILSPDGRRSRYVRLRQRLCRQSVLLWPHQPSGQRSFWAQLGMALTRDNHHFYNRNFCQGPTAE
How it was run: as §1

[1] = GS-986 400 nM, 6 hours, Table 26

Row | Structure (SMILES) | EC50 (TLR7; [1]) | EC50 (TLR9) | EC50 (TLR7; Table 27 comparison)
1 | CCc1c(-c2cc(OC)c3ncnn3c2)[nH]c2cc(-c3ccc(N4CCNCC4)nc3)ccc12 [Example 169] | 0.13 nM | 502 nM | 
2 | Cc1cc(-c2[nH]c3cc(-c4ccc(N5CCNCC5)nc4)ccc3c2C2CC2)cn(C)c1=O [Example 165] | 0.33 nM | 186 nM | 
3 | Cc1c(-c2cc(C)c3ncnn3c2)[nH]c2cc(-c3ccc(N4CCNCC4)nc3)ccc12 [Example 71] | 1.2 nM | 630 nM | 
4 | Cc1cc(-c2[nH]c3cc(-c4ccc(N5CCN(CCO)CC5)nc4)ccc3c2C)cc(C)n1 [Example 37, 2-(4-(5-(2-(2,6-dimethylpyridin-4-yl)-3-methyl-1H-indol-6-yl)pyridin-2-yl)piperazin-1-yl)ethan-1-ol] | 17.3 nM | 37.5 nM | 
5 | CCc1c(-c2cc(C)c3ncnn3c2)[nH]c2cc(-c3ccc(N4CCNCC4)nc3)ccc12 [Example 167, 6-(3-ethyl-6-(6-(piperazin-1-yl)pyridin-3-yl)-1H-indol-2-yl)-8-methyl-[1,2,4]triazolo[1,5-a]pyridine] | 0.17 nM | 393 nM | 

Next, values leading:

Row | EC50 (TLR7; [1]) | EC50 (TLR9) | EC50 (TLR7; Table 27 comparison) | Structure (SMILES)
6 | 4.8 nM | 3980 nM |  | Cc1cc(-c2[nH]c3cc(C4CCNCC4)ccc3c2C(C)C)cn2ncnc12 [Example 55]
7 | > 1000 nM | 181 nM | > 1000 nM | Cc1cc(-c2[nH]c3cc(C4CCCNC4)ccc3c2C)cc(C)n1 (stereo not shown) [Example 53]
8 | 18.1 nM | 51.9 nM |  | Cc1cc(-c2[nH]c3cc(-c4ccc(N5CCNCC5)nc4)ccc3c2C)cc(C)n1 [Example 1, 2-(2,6-dimethylpyridin-4-yl)-3-methyl-6-(6-(piperazin-1-yl)pyridin-3-yl)-1H-indole]
9 | 692 nM | 136 nM |  | Cc1cc(-c2[nH]c3cc(C4CCNCC4)ccc3c2C)cc(C)n1 [Example 48, 2-(2,6-dimethylpyridin-4-yl)-3-methyl-6-(piperidin-4-yl)-1H-indole]
